# In patent US20080031935A1, “Cholinesterase Inhibitors In Liposomes And Their Production And Use” (priority 2004, published 2008):
# Assay: Solubility of galantamine base in ethanol
# Format: physicochemical
compound,measurement,value
"COc1ccc2c3c1O[C@H]1C[C@@H](O)C=C[C@@]31CCN(C)C2 [galantamine base, galantamine]",solubility in ethanol,soluble
